Reference: patent US5428031A, “Methods of treating cardiac arrhythmia” (priority 1993, dated 1995)
Read-outs that look alike come from different tables or passages of the source.

Experiments:
IKr = conditions: cited from earlier work
[1] = target: T1, IKs (slowly activating delayed rectifier K+ current) (Cavia porcellus, UniProt O70344); test: cell-based; assay type: cell-based, guinea pig
T1 construct: Guinea pig ventricular myocytes were isolated; endogenous in cells; host or cells: isolated guinea pig ventricular myocytes
Procedure: Current amplitude is measured as the difference from the initial instantaneous current level following the capacitance discharge after changing the transmembrane voltage from -50 mV to +50 mV, to the current level at the end of the 1 second voltage step. Normally, an increase in the current amplitude occurs as a function of time and voltage during depolarization of the cardiac cell membrane and this increasing current has been defined as the delayed rectifier K^+ current (IK). […] IKs current occurs as a consequence of time- and voltage-dependent opening of ionic channels or pores in the cardiac cell membrane that allow the relatively selective flow of potassium ions (K^+) from the inside to the outside of the cell, that is, down the voltage and concentration gradient for K^+ ions that is inherent in cardiac cells. Thus, block of the IKs current ultimately reflects block of certain ion channels or pores in the cardiac cell membrane. However, the single pores or channels thought to underlie the IKs current have yet to be measured or identified at the single channel level.
(§1) Guinea pig ventricular myocytes were isolated using a modification of the procedure described by Mitra R and Morad M., "A Uniform Enzymatic Method for Dissociation of Myocytes from Hearts and Stomachs of Nertilorates", Am. J. Physiol. […] Excised hearts were perfused through the aorta (retrograde fashion) at a rate of 10 ml/min with oxygenated, warmed (37° C.) solutions described below. […] The head was then perfused with the same nominally Ca^2+ -free solution containing 150 units/ml Type II collagenase (Worthington) and 0.5 units/ml Type XIV protease (Sigma) for 8 minutes. This perfusate was followed by a Tyrode's solution containing 0.2 mM CaCl2 (without enzymes) for 5 minutes. The digested ventricles were cut into small pieces and gently shaken until cells were visibly dispersed. The cells were stored at room temperature until use, within 8 hours after isolation.
(§2) The suction microelectrode technique described by Giles, W. R. and Shibata, E. F., "Voltage clamp of bull-frog cardiac pacemaker cells: a quantitative, analysis of potassium currents". J. Physiol. […] Microelectrodes were made by using a two stage puller from square bore (1.0 mm o.d.) borosilicate capillary tubing. […] After establishing whole-cell recording mode, negative pressure was maintained on the pipette using a 1 ml gas-tight syringe attached via air tight tubing to the suction port of the microelectrode holder. This minimized dialysis of the cell with the pipette solution.
(§3) To record K^+ currents, the cells were bathed in a Ca^2+ -free Tyrode's :solution containing […] nisoldipine. […] A List EPC-7 clamp amplifier was used to voltage clamp the isolated cells. […] A variety of voltage pulse protocols were used to measure Ca^2+ current and three types of K^+ currents: inward rectifier (IK1), rapidly activating delayed rectifier (IKr) and the slowly activating delayed rectifier (IKs). Sanguinetti M. C. and Jurkiewicz, N. K., "Two components of cardiac delayed rectifier K^+ current: Differential sensitivity to block by Class III antiarrhythmic agents". […] Data was analyzed as % block from control membrane currents.
(§4) Nisoldipins was prepared as a 4 mM stock solution in polyethylne glycol 200. Compounds tested in this series were prepared as 10 mM stock solutions in polyethylene glycol 400 or dimethyl sulfoxide.

[2] = target: T2, IKr (rapidly activating delayed rectifier K+ current) (Cavia porcellus, UniProt O08703); test: voltage clamp measurement of IKr block in isolated guinea pig ventricular myocytes; assay type: cell-based
T2 construct: Guinea pig ventricular myocytes were isolated; endogenous in cells; host or cells: isolated guinea pig ventricular myocytes
T2 sequence (O08703 1-1294): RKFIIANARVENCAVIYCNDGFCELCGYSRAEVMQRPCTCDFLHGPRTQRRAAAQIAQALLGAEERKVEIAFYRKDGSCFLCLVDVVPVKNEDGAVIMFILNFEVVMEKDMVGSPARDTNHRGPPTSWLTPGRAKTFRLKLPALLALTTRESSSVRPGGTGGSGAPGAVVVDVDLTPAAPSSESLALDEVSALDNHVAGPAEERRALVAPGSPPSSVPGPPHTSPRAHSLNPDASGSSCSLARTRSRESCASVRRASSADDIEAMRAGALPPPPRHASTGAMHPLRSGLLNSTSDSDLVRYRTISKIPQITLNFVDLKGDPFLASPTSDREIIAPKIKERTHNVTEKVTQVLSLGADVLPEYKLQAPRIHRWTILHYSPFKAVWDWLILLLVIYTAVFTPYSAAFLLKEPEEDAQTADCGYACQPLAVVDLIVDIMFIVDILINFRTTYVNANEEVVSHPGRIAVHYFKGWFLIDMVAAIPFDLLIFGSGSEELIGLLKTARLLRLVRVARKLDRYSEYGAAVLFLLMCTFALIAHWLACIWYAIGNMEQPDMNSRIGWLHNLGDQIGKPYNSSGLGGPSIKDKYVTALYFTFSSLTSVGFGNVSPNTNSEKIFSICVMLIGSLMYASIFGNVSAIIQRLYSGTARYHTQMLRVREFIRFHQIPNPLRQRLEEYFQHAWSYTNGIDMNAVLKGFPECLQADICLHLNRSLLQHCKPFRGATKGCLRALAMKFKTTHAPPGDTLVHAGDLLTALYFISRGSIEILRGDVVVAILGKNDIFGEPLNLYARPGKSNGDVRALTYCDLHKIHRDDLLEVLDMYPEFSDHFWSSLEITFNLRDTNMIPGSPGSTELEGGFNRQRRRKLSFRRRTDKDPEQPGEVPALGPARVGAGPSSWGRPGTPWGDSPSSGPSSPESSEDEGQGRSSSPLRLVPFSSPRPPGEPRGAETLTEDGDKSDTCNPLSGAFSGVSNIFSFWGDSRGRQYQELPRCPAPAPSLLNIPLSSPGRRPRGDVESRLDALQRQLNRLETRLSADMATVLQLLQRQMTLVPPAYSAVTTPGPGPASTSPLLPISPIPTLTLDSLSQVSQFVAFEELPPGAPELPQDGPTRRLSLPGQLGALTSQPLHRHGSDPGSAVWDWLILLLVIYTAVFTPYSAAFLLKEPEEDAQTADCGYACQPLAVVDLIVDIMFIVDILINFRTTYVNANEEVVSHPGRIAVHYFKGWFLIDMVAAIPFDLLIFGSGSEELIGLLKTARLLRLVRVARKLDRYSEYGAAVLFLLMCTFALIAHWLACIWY
Procedure: as §1, §2, §3, §4

L-type Ca2+ channels = conditions: 0.4 mM nisoldipine; cited from earlier work
K+ currents = conditions: 0.4 mM nisoldipine; cited from earlier work
IKs = conditions: cited from earlier work
Na+ currents = conditions: cited from earlier work
Ca2+ currents = conditions: cited from earlier work
thyroid function = conditions: cited from earlier work
adrenergic = conditions: cited from earlier work
phospholipase = conditions: cited from earlier work
[3] = cited from earlier work
[4] = 1 μM, read-out: Cellular Electrophysiology (% Block), IKs
[5] = 10 μM, read-out: Cellular Electrophysiology (% Block), IKs
[6] = 1 μM, read-out: Cellular Electrophysiology (% Block), IKr
[7] = 10 μM, read-out: Cellular Electrophysiology (% Block), IKr
[8] = read-out: Cellular Electrophysiology (% Block), IKs
[9] = read-out: Cellular Electrophysiology (% Block), IKr
[10] = read-out: IC50 or % Block (μM), IKr (% block)

Structure (SMILES): CS(=O)(=O)Nc1ccc2c(c1)C(O)CC1(CCN(C3CCc4cc(C#N)ccc4C3)CC1)O2 (single isomer, unassigned)
- block of IKr (IKr): predominantly, if not exclusively, block IKr

Structure (SMILES): CN1C(=O)C(NC(=O)c2cc3ccccc3[nH]2)N=C(c2ccncc2)c2ccccc21 (stereo not shown) [Example 9]
- inhibition at 1 µM [1, 4]: 20%
- inhibition at 10 µM [1, 5]: 66%
- inhibition at 1 µM [2, 6]: 44.3%
- inhibition at 10 µM [2, 7]: 82.4%

Structure (SMILES): CC(C)NCC(O)c1ccc(NS(C)(=O)=O)cc1 (stereo not drawn) [d-sotalol]
- block of IKr (IKr): predominantly, if not exclusively, block IKr

Structure (SMILES): CN1C(=O)[C@H](N)N=C(c2ccccc2)c2ccccc21 [Example 7]
- inhibition at 1 µM [1, 8]: 29.9 ± 6%
- inhibition at 10 µM [1, 8]: 43.4 ± 10.8%
- inhibition at 1 µM [2, 9]: 14.8 ± 6.7%
- inhibition at 10 µM [2, 9]: 36.4 ± 2.9%

Structure (SMILES): COC(=O)C1=C(C)NC(C)=C(C(=O)OCC(C)C)C1c1ccccc1[N+](=O)[O-] (stereo not shown) [Nisoldipine]
- block of L-type Ca2+ channels (L-type Ca2+ channels): relatively specific blocker of L-type Ca^2+ channels
- effect on K+ currents (K+ currents): no effect on K^+ currents

Structure (SMILES): CN1C(=O)[C@@H](NC(=O)c2cc3ccccc3[nH]2)N=C(c2ccccc2)c2ccccc21 [Compound 2, 3(S)-(-)-1,3-dihydro-3-(2-indolecarbonylamino)-1-methyl-5-phenyl-2H-1,4-benzodiazepin-2-one]
- inhibition at 1 µM ([1]; read-out: IC50 or % Block (μM), IKs (% block)): 25%
- inhibition at 1 µM [2, 10]: 21%

Structure (SMILES): CN1C(=O)[C@H](NC(=O)c2cc3ccccc3[nH]2)N=C(c2ccccc2)c2ccccc21 [Compound 1, 3(R)-(+)-1,3-dihydro-3-(2-indolecarbonylamino)-1-methyl-5-phenyl-2H-1,4-benzodiazepin-2-one]
- inhibition at 1 µM [2, 10]: 20%

Structure (SMILES): CCCCc1oc2ccccc2c1C(=O)c1cc(I)c(OCCN(CC)CC)c(I)c1 [amiodarone]
- block of IKs (IKs): blocker of IKs
- block of Na+ currents (Na+ currents): blocks Na^+ and Ca^2+ currents
- block of Ca2+ currents (Ca2+ currents): blocks Na^+ and Ca^2+ currents
- effect on thyroid function (thyroid function): effects thyroid function
- adrenergic block (adrenergic): nonspecific adrenergic blocker
- inhibition of phospholipase (phospholipase): inhbitor of the enzyme phospholipase
- Class III properties / selectivity [3]: interesting Class III properties
- Class III properties / selectivity ([3]; listed as Amiodarone): not a selective Class III antiarrhythmic agent

Structure (SMILES): CC(C)S(=O)(=O)NC(=O)c1cccc(NC(=O)NC2N=C(C3CCCCC3)c3ccccc3N(C)C2=O)c1 (stereo not shown) [Example 5]
- inhibition at 1 µM [1, 4]: 10%
- inhibition at 10 µM [1, 5]: 30.5 ± 6.6%
- IC50 ([1]; Guinea Pig Myocytes, read-out: IC50 or % Block (μM), IKs (bare number: IC50)): 57 µM
- inhibition at 1 µM [2, 6]: 16.1%
- inhibition at 10 µM [2, 7]: 24.7 ± 13%
- IC50 ([2]; Guinea Pig Myocytes, read-out: IC50 or % Block (μM), IKr (bare number: IC50)): 77 µM

Structure (SMILES): Cc1cccc(NC(=O)NC2N=C(N3CCOCC3)c3ccccc3N(C)C2=O)c1 (stereo not shown) [Example 12]
- inhibition at 10 µM [1, 5]: 16 ± 11%
- inhibition at 1 µM [2, 6]: 13 ± 3.1%
- inhibition at 10 µM [2, 7]: 30 ± 5.4%

Structure (SMILES): CN1C(=O)[C@H](NC(=O)C2CCC3(CC2)CCN(C(=O)OC(C)(C)C)CC3)N=C(c2ccccc2)c2ccccc21 [Example 40, (+)-N-[(3R)-2,3-Dihydro-1-methyl-2-oxo-5-phenyl-1H-1,4-benzo-diazepin-3-yl]-1'-(1,1-dimethylethoxycarbonyl)spiro(cyclohexan-4,4'-piperidine)-1-carboxamide]
- IKs inhibition, purity of action ([1]; in words): not a pure IKs inhibitor

Structure (SMILES): CN(CCOc1ccc(NS(C)(=O)=O)cc1)CCc1ccc(NS(C)(=O)=O)cc1 [dofetilide]
- block of IKr (IKr): predominantly, if not exclusively, block IKr
